Patent US8221975B2, “Method for detection of microorganism” (Morinaga Milk Industry Co., Ltd., priority 2007, dated 2012)
Where “and” joins values, the source holds several entries; their conditions need not be identical. Equal values may be shown once.

Experiments:
Assay type in all cases: cell-based
[1] = tested on: Enterobacter sakazakii ATCC 6538P; assay: MMS real-time PCR (79 bp) of EMA-treated Enterobacter sakazakii, Ct value
Description: In the case where the real-time PCR is employed, changes in fluorescent intensities are generally noise levels and about zero if the number of amplification cycles is in the range of 1 to 10. Therefore, the intensities are regarded as sample blanks containing no amplification products. The standard deviation (SD) of the changes is calculated, and a value obtained by multiplying the SD value by 10 is defined as a threshold value. The number of PCR cycles in which a value larger than the threshold value is achieved for the first time referred to as “cycle threshold value (Ct value)”. Therefore, the larger the initial amount of a DNA template in a PCR reaction solution, the smaller the Ct value, while the smaller the amount of the template DNA, the larger the Ct value. Even if the amounts of the template DNA are the same, the higher the proportion of the template where a target region of PCR has been cleaved, the larger the Ct value in PCR reactions for the region.
A Gram-negative bacterium, Enterobacter sakazakii (Enterobacter sakazakii ATCC 6538P; hereinafter, abbreviated as “sakazakii” in some cases), was cultured in brain-heart infusion (BHI) broth at 37° C., and 5 ml of the culture medium in the logarithmic growth phase was centrifuged at 8,000×g for 15 minutes at 4° C., followed by removal of the supernatant. 5 ml of physiological saline was added to the bacterial cells, and the whole was vigorously stirred and diluted 10-fold. Thus, a live cell suspension was prepared. The number of the live cells in the live cell suspension was determined in a standard agar plate medium and found to be 8.38±0.25 log10 cfu/ml.
The live cell suspension (1 ml) was placed in a 1.5-ml microtube, and the microtube was immersed in boiling water for 2 minutes and immediately cooled with ice water, to thereby prepare a injured cell suspension. The cells in the suspension probably include small numbers of live cells and dead cells but include mainly injured cells. Therefore, the cells are simply referred to as “injured cells”. Note that the method of the present invention is originally intended to detect live cells, and microorganism cells distinguished from live cells may be injured cells or dead cells.
Ethidium monoazide (EMA) was added to the live cell suspension and injured cell suspension of sakazakii prepared above at a final concentration of 0, 10, 25, or 100 μg/ml, and the suspensions were allowed to stand under shading at 4° C. for 10 minutes. The suspensions were placed on ice and irradiated for 5 minutes with a 500-W visible light (FLOOD PRF: 100 V, 500 W, IWASAKI ELECTRIC CO., LTD., wavelength: 500 to 700 nm) at a distance of 20 cm from the suspensions. Then, the suspensions were centrifuged at 15,000×g for 10 minutes at 4° C., and the supernatants were removed. An equal volume of physiological saline was added thereto, and the suspensions were stirred and centrifuged while cooling at 15,000×g for 10 minutes at 4° C., followed by removal of the supernatants. An equal volume of brain-heart infusion (BHI) broth was added thereto, and the suspensions were incubated at 37° C. for 2 hours.
In the […] EMA treatment, EMA was not added again to the live cell and injured cell suspensions having an EMA concentration of 0, […] The suspensions were allowed to stand under shading at 4° C. for 10 minutes, placed on ice, and irradiated for 5 minutes with a 500-W visible light at a distance of 20 cm from the suspensions.
Ethidium monoazide (EMA) was added to the live cell and injured cell suspensions of sakazakii prepared in the section “1.” at a final concentration of 0, 10, 25 or 100 μg/ml, and the suspensions were allowed to stand under shading at 4° C. for 10 minutes, placed on ice, and irradiated for 5 minutes with a 500-W visible light (FLOOD PRF: 100V, 500 W, IWASAKI ELECTRIC CO., LTD., wavelength: 500 to 700 nm) at a distance of 20 cm from the suspensions. […]

[2] = tested on: Listeria monocytogenes JCM 2873; assay: hlyA-PCR of EMA-treated Listeria (live and injured cells), band intensity of final amplified product on agarose gel; settings: for bands of hlyA gene amplified products (electrophoresis, FIG. 1): multi-step treatment (EMA 100 μg/ml-incubation-EMA 25 or 10 μg/ml); for bands estimated as hlyA gene amplified products (electrophoresis, FIG. 1): single-step treatment, live cells and injured cells
[3] = tested on: Salmonella enteritidis IIP 604; assay: invA real-time PCR (378 bp) of EMA-treated Salmonella, Ct value
[4] = single-step EMA 10 μg/ml, Injured cell
[5] = single-step EMA 10 μg/ml, Live cell
[6] = single-step EMA 25 μg/ml, Injured cell
[7] = single-step EMA 25 μg/ml, Live cell
[8] = single-step EMA 100 μg/ml, Injured cell
[9] = single-step EMA 100 μg/ml, Live cell
[10] = two-step EMA 10/10 μg/ml, Live cell
[11] = two-step EMA 25/10 μg/ml, Live cell
[12] = two-step EMA 100/10 μg/ml, Injured cell
[13] = two-step EMA 100/10 μg/ml, Live cell
[14] = two-step EMA 10/10 μg/ml, Injured cell
[15] = two-step EMA 25/10 μg/ml, Injured cell

CC[n+]1c(-c2ccccc2)c2cc(N=[N+]=[N-])ccc2c2ccc(N)cc21 [EMA, ethidium monoazide]
Ct value (mean ± SD, N = 2) [1, 4]: 27.6 ± 0.1 | number of times of positive reaction in two PCR assays (i/2) [1, 4]: (2/2) | Ct value (mean ± SD, N = 2) [1, 5]: 20.8 ± 0.9 | Ct value (mean ± SD, N = 2) [1, 6]: 27.3 ± 1.0 | number of times of positive reaction in two PCR assays (i/2) [1, 6]: (2/2) | Ct value (mean ± SD, N = 2) [1, 7]: 19.9 ± 1.3 | Ct value (mean ± SD, N = 2) [1, 8]: 25.2 ± 0.5 | number of times of positive reaction in two PCR assays (i/2) [1, 8]: (2/2) | Ct value (mean ± SD, N = 2) [1, 9]: 22.2 ± 1.0 | Ct value (mean ± SD, N = 2) [1, 10]: 17.1 ± 1.8 | Ct value (mean ± SD, N = 2) [1, 11]: 18.5 ± 2.5 | Ct value (mean ± SD, N = 2) [1, 12]: 27.3, ND^d,e | Ct value (mean ± SD, N = 2) [1, 13]: 22.9 ± 1.0 | bands of hlyA gene amplified products (electrophoresis, FIG. 1) ([2]; injured cells): few or no bands were detected | bands of hlyA gene amplified products (electrophoresis, FIG. 1) ([2]; live cells): bands were clearly detected | Band Intensity ([2]; multi-step: EMA 100 μg/ml + Incubation (30° C., 2 hr) + EMA 10 μg/ml, Injured cell): 0.094 | Band Intensity ([2]; multi-step: EMA 100 μg/ml + Incubation (30° C., 2 hr) + EMA 10 μg/ml, Live cell): 1.420 | Band Intensity ([2]; multi-step: EMA 100 μg/ml + Incubation (30° C., 2 hr) + EMA 25 μg/ml, Injured cell): 0.024 | Band Intensity ([2]; multi-step: EMA 100 μg/ml + Incubation (30° C., 2 hr) + EMA 25 μg/ml, Live cell): 1.135 | Band Intensity [2, 4]: 1.539 | Band Intensity [2, 5]: 1.141 | Band Intensity [2, 6]: 0.418 | Band Intensity [2, 7]: 0.479 | bands estimated as hlyA gene amplified products (electrophoresis, FIG. 1) ([2]; EMA 10 μg/ml): detected in both the live cells and injured cells | bands estimated as hlyA gene amplified products (electrophoresis, FIG. 1) ([2]; EMA 25 μg/ml): almost disappeared in both the live cells and injured cells | Ct value (mean ± SD, N = 2) [3, 4]: 31.6 ± 4.7 | number of times of positive reaction in two PCR assays (i/2) [3, 4]: (2/2) | Ct value (mean ± SD, N = 2) [3, 5]: 16.2 ± 0.4 | number of times of positive reaction in two PCR assays (i/2) [3, 5]: (2/2) | Ct value (mean ± SD, N = 2) [3, 6]: ND, ND^c,d | number of times of positive reaction in two PCR assays (i/2) [3, 6]: (0/2) | Ct value (mean ± SD, N = 2) [3, 7]: 18.23±0.3 and 18.2 ± 0.3 | number of times of positive reaction in two PCR assays (i/2) [3, 7]: (2/2) | Ct value (mean ± SD, N = 2) [3, 8]: ND, ND | number of times of positive reaction in two PCR assays (i/2) [3, 8]: (0/2) | Ct value (mean ± SD, N = 2) [3, 9]: 27.7±3.8 and 27.7 ± 3.6 | number of times of positive reaction in two PCR assays (i/2) [3, 9]: (2/2) | Ct value (mean ± SD, N = 2) [3, 14]: ND, ND | number of times of positive reaction in two PCR assays (i/2) [3, 14]: (0/2) | Ct value (mean ± SD, N = 2) [3, 10]: 16.0±3.5 | number of times of positive reaction in two PCR assays (i/2) [3, 10]: (2/2) | Ct value (mean ± SD, N = 2) [3, 15]: ND, ND | number of times of positive reaction in two PCR assays (i/2) [3, 15]: (0/2) | Ct value (mean ± SD, N = 2) [3, 11]: 18.9 ± 2.2 | number of times of positive reaction in two PCR assays (i/2) [3, 11]: (2/2) | Ct value (mean ± SD, N = 2) [3, 12]: ND, ND | number of times of positive reaction in two PCR assays (i/2) [3, 12]: (0/2) | Ct value (mean ± SD, N = 2) [3, 13]: 27.9 ± 3.0 | number of times of positive reaction in two PCR assays (i/2) [3, 13]: (2/2)
